# Reference: patent US11471484B2, “Fullerene and its use to maintain good health and to prolong the expected lifespan of mammals” (priority 2011, dated 2022)
# Key:
# [1] = test system: acute carbon tetrachloride intoxication in rats (free-radical-mediated liver injury); settings: CCl4 model, intra-peritoneal, aqueous suspension; cited from earlier work
# mice = assay: Acute or sub-acute toxicity in mice; format: in vivo; settings: large amounts administered
# Source text: (§1) Free radicals are constantly formed in vivo. Some of these molecules are physiologically useful, but they can also result in pathological oxidative stress to cells and tissues. Endogenous defences include both antioxidants and repairing systems. However, excess production of free radicals, their production in inappropriate relative amounts or deficiencies in endogenous defences can have deleterious effects. Free radicals can cause oxidative damage to lipids, DNA, bio molecules, rises in the concentration of intracellular calcium, as well as activation of proteases, nucleases and protein kinases. Considerable evidence supports the view that oxidative damage involving free radicals occurs in most, if not all, human diseases. Oxidative stress is now recognized as an important contributor to the development of many human diseases including liver fibrosis, ischemia-reperfusion, atherosclerosis, several neurological disorders and age-related cancer as well as to process of ageing. Thus antioxidants and systems that can protect against oxidative stress are needed to maintain health and prolong the expected lifespan in metazoans. This has led to attempts to develop additional antioxidants to supplement the antioxidant defences of cells as potential therapeutic agents. […]
# [2] = Dissolution of C60 in vegetable oil; format: physicochemical; settings: in less than one week
# Source text: as §1
# [3] = test system: acute carbon tetrachloride intoxication in rats (free-radical-mediated liver injury); assay: C60-induced protection of the liver against acute toxicity of carbon tetrachloride in rats; format: in vivo; settings: CCl4 model
# Source text: Carbon tetrachloride is a classical hepatotoxicant that causes rapid liver damage progressing from steatosis to centrilobular necrosis. CCU intoxication in rodents is an important model far elucidation of the mechanism of action of hepatotoxic effects such as fatty degeneration, fibrosis, hepatocellular death, and carcinogenicity. These effects are consistent with the known induced metabolic activation of CCl4 to reactive intermediates, including CCl3″ and CCl02′ free radicals, and mobilization of intracellular calcium. Kupffer cells (liver resident macrophages) participate in the mechanism of toxicity of CCl4 in vivo by release of chemoattractants for neutrophils and a series of chemical mediators (cytokines). Both expression and synthesis of these cytokines are mainly modulated through redox-sensitive reactions. […] In a previous work, the effects of C60-pretreatments on acute carbon tetrachloride intoxication in rats, a classical model for studying free-radical-mediated liver injury was reported.
# rats [4] = assay: Acute or sub-acute toxicity in rats; format: in vivo; settings: large amounts administered
# Source text: as §1
# rats [5] = assay: Longevity and chronic toxicity study in rats, oral gavage; format: in vivo
# Description: The rats were housed one per cage and acclimated for 14 days, before dosing. Three groups of 10 rats (10 months old, weighing 495±31 g) were administered daily for one week, then weekly until the end of the second month and then every two weeks until the end of the 7th month, by gavages with 1 ml of water or olive oil or Ceo dissolved in olive oil (0.8 mg/ml), respectively. The rats were weighed before each dosing. Routine observations following official recommendations (EC Commission Directive 2004/73/EC of 29 Apr. 2004 Adapting to Technical Progress for the Twenty-Ninth Time Council Directive 67/548/EEC on the Approximation of the Laws, Regulations and Administrative Provisions Relating to the Classification, Packaging and Labeling of Dangerous Substances. O.J. No. L1522004) were made on all animals inside and outside the cage once a day throughout the study for signs of departure from normal activity, morbidity and mortality.
# This experiment was initiated after observing that Ceo is absorbed through oral administration. To study the chronic toxicity of Ceo we designed a protocol according to the general guidelines of US food and drug administration (Chronic Toxicity Studies with Rodents in Toxicological Principles for the Safety Assessment of Food Ingredients. Redbook 2000, revised July 2007, Chapter IV.C.5.a. IV.C.5.a.) with some modifications. […]
# [6] = Pharmacokinetics and biodistribution of an oily solution after oral and intra-peritoneal administration in rats; format: in vivo, male Wistar rats
# Description: Pharmacokinetic studies were carried out with male Wistar rats (weighing 200-220 g). Rats were housed in individual cages and maintained in an air-conditioned room (22-25° C.) on a 12 h light/dark cycle with water and food available. The rats were acclimated for 7 days and they were fasted overnight but with access to water, before treatment.
# Under general anesthesia, a catheter was introduced into the rat right jugular vein, positioned subcutaneously with the tip in the inter-scapular region. The prepared rats were then allowed to recover for 24 h, and the blood catheters were flushed with 0.9% NaCl solution containing 20 I U/ml of heparin to avoid possible clot obstruction. Before Ceo administration, the rats were fasted overnight but with access to water. The same single dose of Ceo (4 mg/kg) was delivered orally, by a gavages needle, or intra-peritoneally to two groups of three rats. Blood (0.20 ml) was withdrawn via the canular prior to dosing (f=0) and at 15, 30, 60 min and then at 2, 4, 8, 10, 12, 24 and 48 h post-dosing. Antithrombin heparin (20 IU/ml) was added in each blood sample. After each blood collection 0.20 ml of sterile 0.9% NaCl solution were injected to the animal, to avoid hypovolemia. The rats were sacrificed 48 h after eo administration for organ collection (livers, spleens, and brains).
# Consequently, the area under the curve (AUC) is about 5 times larger when Ceo is administered by i.p. route as compared to oral route.
smiles,measurement,setting,value
c12c3c4c5c1c1c6c7c2c2c8c3c3c9c4c4c%10c5c5c1c1c6c6c%11c7c2c2c7c8c3c3c8c9c4c4c9c%10c5c5c1c1c6c6c%11c2c2c7c3c3c8c4c4c9c5c1c1c6c2c3c41 [[60]fullerene],day of better protection after administration,[1],14 days
same,most effective dose,[1],about 2.5 g/kg of body-weight
same,acute or sub-acute toxicity,mice,no acute or sub-acute toxicity could be observed
same,amount dissolved per g of oil,[2]; olive oil,up to 1 mg of C60 per g
same,amount dissolved per g of oil,[2]; soybean oil,up to 1 mg of C60 per g
same,activity in solution compared with suspension,[3]; compared with results of Nano Letters 2005,about 100 times
same,time of effect after administration,[3]; fullerene in solution,24 h
same,acute or sub-acute toxicity,rats [4],no acute or sub-acute toxicity could be observed
same,longevity,rats [5]; oral administration,increases significantly the longevity
same,behaviour or growth disorder,rats [5]; per os 1 ml of olive oil containing 0.8 mg C60 (FIG. 1),No behaviour or growth disorder could be observed
same,"area under the curve (AUC), i.p. route as compared to oral route","[6]; 4 mg/kg, i.p. versus oral",about 5 times
same,"distribution, brain barrier","[6]; 4 mg/kg, oral or i.p.",can cross the brain barrier
same,absorption and elimination,[6]; intraperitoneal or oral administration,absorbed and eliminated
